Results reported in PubChem BioAssay (NCI).
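Assay format: 96-well plates, 48-hour exposure. The concentration for 50% growth inhibition is given as GI50. TGI marks complete inhibition of growth.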

Legend:
Test in all cases: NCI anticancer screen, dose series, 48 h
[1] = test system: A498 renal
[2] = test system: A549 NSCLC
[3] = test system: ACHN renal
[4] = test system: CAKI-1 renal
[5] = test system: CCRF-CEM leukemia
[6] = test system: COLO 205 colon
[7] = test system: DU-145 prostate
[8] = test system: EKVX NSCLC
[9] = test system: HCC-2998 colon
[10] = test system: HCT-116 colon
[11] = test system: HCT-15 colon
[12] = test system: HL-60(TB) leukemia
[13] = test system: HOP-62 NSCLC
[14] = test system: HOP-92 NSCLC
[15] = test system: HS 578T breast
[16] = test system: HT29 colon
[17] = test system: IGROV1 ovarian
[18] = test system: K-562 leukemia
[19] = test system: KM12 colon
[20] = test system: LOX IMVI melanoma
[21] = test system: M14 melanoma
[22] = test system: MALME-3M melanoma
[23] = test system: MCF7 breast
[24] = test system: MDA-MB-231 breast
[25] = test system: MDA-MB-435
[26] = test system: MOLT-4 leukemia
[27] = test system: NCI-H226 lung
[28] = test system: NCI-H23 lung
[29] = test system: NCI-H460 lung
[30] = test system: NCI-H522 lung
[31] = test system: NCI/ADR-RES ovarian
[32] = test system: OVCAR-3 ovarian
[33] = test system: OVCAR-4 ovarian
[34] = test system: OVCAR-5 ovarian
[35] = test system: OVCAR-8 ovarian
[36] = test system: PC-3 prostate
[37] = test system: RPMI-8226 leukemia
[38] = test system: RXF 393 renal
[39] = test system: SF-268 CNS
[40] = test system: SF-295 CNS
[41] = test system: SF-539 CNS
[42] = test system: SK-MEL-2 melanoma
[43] = test system: SK-MEL-28 melanoma
[44] = test system: SK-MEL-5 melanoma
[45] = test system: SN12C renal
[46] = test system: SNB-19 CNS
[47] = test system: SNB-75 CNS
[48] = test system: SR leukemia
[49] = test system: SW-620 colon
[50] = test system: T-47D breast
[51] = test system: TK-10 renal
[52] = test system: U251 CNS
[53] = test system: UACC-257 melanoma
[54] = test system: UACC-62 melanoma
[55] = test system: UO-31 renal
[56] = test system: 786-0 renal
[57] = test system: BT-549 breast
[58] = test system: SK-OV-3 ovarian

## O=C(Nc1ccc(-n2cc(-c3ccncc3)c(-c3ccc(O)c(Cl)c3)n2)cc1)c1ccc(Cl)c(C(F)(F)F)c1
[1]
  GI50: 41.7 µM
  TGI: > 50 µM
[2]
  GI50: 2.09 µM
  TGI: > 50 µM
[3]
  GI50: 1.8 µM
  TGI: 13.3 µM
[4]
  GI50: 2.05 µM
  TGI: 14.7 µM
[5]
  GI50: 0.275 µM
  TGI: > 50 µM
[6]
  GI50: 7.67 µM
  TGI: 26 µM
[7]
  GI50: 3.35 µM
  TGI: > 50 µM
[8]
  GI50: 4.83 µM
  TGI: > 50 µM
[9]
  GI50: 2.82 µM
  TGI: > 50 µM
[10]
  GI50: 1.75 µM
  TGI: 7.04 µM
[11]
  GI50: 1.21 µM
  TGI: 4.39 µM
[12]
  GI50: 1.83 µM
  TGI: 12.5 µM
[13]
  GI50: 2.31 µM
  TGI: > 50 µM
[14]
  GI50: 1.07 µM
  TGI: 4.55 µM
[15]
  GI50: 0.702 µM
  TGI: 3.1 µM
[16]
  GI50: 1.2 µM
  TGI: 2.72 µM
[17]
  GI50: 15.6 µM
  TGI: > 50 µM
[18]
  GI50: 1.37 µM
  TGI: > 50 µM
[19]
  GI50: 1.93 µM
  TGI: > 50 µM
[20]
  GI50: 1.12 µM
  TGI: 6.88 µM
[21]
  GI50: 0.946 µM
  TGI: 2.08 µM
[22]
  GI50: 1.45 µM
  TGI: 6.71 µM
[23]
  GI50: 2.4 µM
  TGI: > 50 µM
[24]
  GI50: 0.735 µM
  TGI: 1.56 µM
[25]
  GI50: 2.06 µM
  TGI: 39.4 µM
[26]
  GI50: 1.69 µM
  TGI: 34.2 µM
[27]
  GI50: > 50 µM
  TGI: > 50 µM
[28]
  GI50: 2.55 µM
  TGI: > 50 µM
[29]
  GI50: 1.94 µM
  TGI: > 50 µM
[30]
  GI50: 1 µM
  TGI: 4.88 µM
[31]
  GI50: 2.57 µM
  TGI: > 50 µM
[32]
  GI50: 1.63 µM
  TGI: 7.33 µM
[33]
  GI50: 2.52 µM
  TGI: > 50 µM
[34]
  GI50: 10.1 µM
  TGI: > 50 µM
[35]
  GI50: 1.84 µM
  TGI: 9.58 µM
[36]
  GI50: 1.37 µM
  TGI: > 50 µM
[37]
  GI50: 0.65 µM
  TGI: 2.52 µM
[38]
  GI50: 0.717 µM
  TGI: 1.64 µM
[39]
  GI50: 2.79 µM
  TGI: > 50 µM
[40]
  GI50: 1.35 µM
  TGI: 4.15 µM
[41]
  GI50: 0.96 µM
  TGI: 3.41 µM
[42]
  GI50: 1.22 µM
  TGI: 3.32 µM
[43]
  GI50: 3.61 µM
  TGI: > 50 µM
[44]
  GI50: 1.46 µM
  TGI: 5.67 µM
[45]
  GI50: 2.57 µM
  TGI: > 50 µM
[46]
  GI50: 2.52 µM
  TGI: > 50 µM
[47]
  GI50: 2.23 µM
  TGI: > 50 µM
[48]
  GI50: 1.68 µM
  TGI: 13 µM
[49]
  GI50: 2.38 µM
  TGI: > 50 µM
[50]
  GI50: 3.43 µM
  TGI: 37.2 µM
[51]
  GI50: 1.72 µM
  TGI: 18.1 µM
[52]
  GI50: 0.867 µM
  TGI: 6.76 µM
[53]
  GI50: 4.87 µM
  TGI: 34.5 µM
[54]
  GI50: 3.38 µM
  TGI: 14.2 µM
[55]
  GI50: 2.65 µM
  TGI: 28.3 µM

## COc1cccc(C(C#N)NNC(=O)c2c(Cl)c(Cl)c(Cl)c(Cl)c2-c2nc3ccc(C(=O)c4ccccc4)cc3[nH]2)c1O (stereo not given)
[56]
  TGI: > 100 µM
[1]
  TGI: 7.29 µM
[2]
  TGI: > 100 µM
[3]
  TGI: > 100 µM
[57]
  TGI: > 100 µM
[4]
  TGI: > 100 µM
[5]
  TGI: > 100 µM
[6]
  TGI: > 100 µM
[7]
  TGI: > 100 µM
[8]
  TGI: > 100 µM
[10]
  TGI: > 100 µM
[11]
  TGI: > 100 µM
[12]
  TGI: > 100 µM
[13]
  TGI: 8.59 µM
[14]
  TGI: > 100 µM
[16]
  TGI: > 100 µM
[17]
  TGI: > 100 µM
[18]
  TGI: > 100 µM
[19]
  TGI: > 100 µM
[20]
  TGI: > 100 µM
[21]
  TGI: 25.1 µM
[23]
  TGI: > 100 µM
[24]
  TGI: > 100 µM
[26]
  TGI: > 100 µM
[27]
  TGI: 8.43 µM
[28]
  TGI: > 100 µM
[33]
  TGI: > 100 µM
[34]
  TGI: 70.1 µM
[35]
  TGI: > 100 µM
[36]
  TGI: > 100 µM
[37]
  TGI: > 100 µM
[38]
  TGI: 9.03 µM
[40]
  TGI: 4.69 µM
[42]
  TGI: 29.4 µM
[43]
  TGI: > 100 µM
[44]
  TGI: 10.5 µM
[58]
  TGI: > 100 µM
[45]
  TGI: 7.79 µM
[46]
  TGI: 24.7 µM
[47]
  TGI: 7.46 µM
[48]
  TGI: > 100 µM
[49]
  TGI: > 100 µM
[50]
  TGI: > 100 µM
[51]
  TGI: > 100 µM
[52]
  TGI: > 100 µM
[53]
  TGI: > 100 µM
[55]
  TGI: > 100 µM

## O=C1CC(c2ccsc2)n2cccc21 (stereo not given)
[56]
  TGI: > 100 µM
[1]
  TGI: > 100 µM
[2]
  TGI: > 100 µM
[3]
  TGI: > 100 µM
[4]
  TGI: > 100 µM
[5]
  TGI: > 100 µM
[6]
  TGI: > 100 µM
[7]
  TGI: > 100 µM
[8]
  TGI: > 100 µM
[9]
  TGI: > 100 µM
[10]
  TGI: > 100 µM
[11]
  TGI: > 100 µM
[12]
  TGI: > 100 µM
[13]
  TGI: > 100 µM
[14]
  TGI: > 100 µM
[15]
  TGI: > 100 µM
[16]
  TGI: > 100 µM
[17]
  TGI: > 100 µM
[18]
  TGI: > 100 µM
[19]
  TGI: > 100 µM
[21]
  TGI: > 100 µM
[23]
  TGI: > 100 µM
[24]
  TGI: > 100 µM
[25]
  TGI: > 100 µM
[27]
  TGI: > 100 µM
[28]
  TGI: > 100 µM
[30]
  TGI: > 100 µM
[31]
  TGI: > 100 µM
[32]
  TGI: > 100 µM
[33]
  TGI: > 100 µM
[34]
  TGI: > 100 µM
[35]
  TGI: > 100 µM
[36]
  TGI: > 100 µM
[37]
  TGI: > 100 µM
[38]
  TGI: > 100 µM
[39]
  TGI: > 100 µM
[40]
  TGI: > 100 µM
[41]
  TGI: > 100 µM
[42]
  TGI: > 100 µM
[43]
  TGI: > 100 µM
[44]
  TGI: > 100 µM
[58]
  TGI: > 100 µM
[45]
  TGI: > 100 µM
[46]
  TGI: > 100 µM
[47]
  TGI: > 100 µM
[48]
  TGI: > 100 µM
[49]
  TGI: > 100 µM
[50]
  TGI: > 100 µM
[51]
  TGI: > 100 µM
[52]
  TGI: > 100 µM
[53]
  TGI: > 100 µM
[54]
  TGI: > 100 µM
[55]
  TGI: > 100 µM
